Data set [1] deals with LNCaP cells. Briefly: In vitro LNCaP cell proliferation inhibition test (CellTiter-Glo). It is filed as cell-based. The following applies: for Maximum Inhibition (%) / IC50: 6 days; for IC50: Homo sapiens, read-out: Anti-proliferative activity IC50. How it is done:
The cells were then digested with trypsin and counted using an automated cell counter to determine cell density. The cell suspension was diluted to the desired density in growth medium. Subsequently, 100 μL of the cell suspension was seeded into 96-well plates and incubated at 37° C. with 5% CO2 for 24 hours. 10 μL of drug solution (including 3-fold serial dilutions of compounds or DMSO) was added to each well, and the plates were incubated at 37° C. with 5% CO2 for 6 days. Prior to measurement, the assay plates were equilibrated to room temperature. 40 μL of CellTiter-Glo® reagent was added to each well. The plates were mixed on an orbital shaker for 2 minutes to induce cell lysis. After incubation at room temperature for 60 minutes to stabilize the luminescence signal, the plates were read on an Envision plate reader.
In general terms: In ATP-based viability assays light output follows the ATP content of the culture.

The target in data set [2] is T1, AR (Homo sapiens, UniProt P10275, T878A).
T1 construct: endogenous in cells; host or cells: LNCaP
T1 sequence (P10275 1-920 T878A): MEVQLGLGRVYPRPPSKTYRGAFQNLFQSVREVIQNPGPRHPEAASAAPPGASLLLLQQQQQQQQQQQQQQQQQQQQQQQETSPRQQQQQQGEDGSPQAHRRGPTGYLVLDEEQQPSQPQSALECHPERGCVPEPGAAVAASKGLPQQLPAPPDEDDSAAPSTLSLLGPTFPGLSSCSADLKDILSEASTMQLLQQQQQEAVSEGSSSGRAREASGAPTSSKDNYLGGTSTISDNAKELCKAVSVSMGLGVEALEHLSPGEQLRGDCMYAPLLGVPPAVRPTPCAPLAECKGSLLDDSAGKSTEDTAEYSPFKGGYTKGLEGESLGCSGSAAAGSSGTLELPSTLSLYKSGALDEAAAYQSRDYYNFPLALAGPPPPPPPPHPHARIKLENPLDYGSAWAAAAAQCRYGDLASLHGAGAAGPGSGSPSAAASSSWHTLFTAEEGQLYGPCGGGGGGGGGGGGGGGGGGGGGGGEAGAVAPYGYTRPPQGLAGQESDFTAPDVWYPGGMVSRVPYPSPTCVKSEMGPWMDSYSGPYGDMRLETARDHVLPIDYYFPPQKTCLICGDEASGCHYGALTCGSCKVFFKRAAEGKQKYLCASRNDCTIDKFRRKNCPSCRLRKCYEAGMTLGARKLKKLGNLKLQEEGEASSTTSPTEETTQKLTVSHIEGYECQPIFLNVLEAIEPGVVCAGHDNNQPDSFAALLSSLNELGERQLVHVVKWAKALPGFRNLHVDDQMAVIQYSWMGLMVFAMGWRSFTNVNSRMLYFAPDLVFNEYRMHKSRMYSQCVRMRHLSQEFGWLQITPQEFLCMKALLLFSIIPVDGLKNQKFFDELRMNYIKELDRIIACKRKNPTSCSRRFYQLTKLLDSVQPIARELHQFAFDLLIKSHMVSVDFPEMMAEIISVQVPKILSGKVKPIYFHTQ
Briefly: In vitro AR degradation activity test in LNCaP cells (ELISA, OD450). It is filed as cell-based. Conditions: for DC50: LNCaP cells, 24 hours. How it is done:
The cells were then digested with trypsin and counted using an automated cell counter. The cell suspension was diluted to the desired density in growth medium. The cell suspension was then seeded into 96-well plates at 100 μL per well, and the plates were incubated at 37° C. with 5% CO2 for 24 hours. The compounds were then diluted 200-fold to the final concentration with DMSO or 3-fold to the final concentration with culture medium. 50 μL of compound solution was transferred to the 96-well plate and incubated at 37° C. for 24 hours. After 24 hours of incubation, the cell plate was washed 3 times with DPBS, 100 μL of 1× lysis buffer was added to each well, and placed on ice for 30 minutes. The supernatant was collected. The protein in the cell lysate samples was quantified and then diluted to the required concentration. 100 μL of cell lysate sample was added to the appropriate wells, sealed with tape and pressed firmly on top of the wells, and the plate was incubated at 37° C. for 2 hours. The plate contents were then discarded, and washed 4 times with 1× wash buffer, 200 μL per well each time. 100 μL of reconstituted detection antibody was then added, the plate was sealed with tape and incubated at 37° C. for 1 hour. The aspiration/wash step was then repeated, 100 μL of reconstituted HRP-Linked secondary antibody was added to each well, the plate was sealed with tape and incubated at 37° C. for 30 minutes. The aspiration/wash step was then repeated, 100 μL of substrate solution was added to each well and incubated at 37° C. for 10 minutes, and finally 100 μL of stop solution was added to each well. The plate was gently tapped to ensure thorough mixing, and the OD450 nm was recorded.
Degradation rate (%)=(OD450_max−OD450_sample)/(OD450_max−OD450_min)×100,plotted using GraphPad Prism 5 software, and IC50 is calculated using SPSS software.
A general note: In an ELISA, binding on a coated surface is turned into a signal by an enzyme label.

A short description of data set [3]: In vivo pharmacokinetics in rats after oral gavage. Conditions: male SD rats, PO 10 mg/kg. How it is done: Male SD rats were randomly divided into 6 groups, 3 rats per group. The rats were fasted but not water-deprived for 12-14 h one day before dosing. The test samples were then dissolved in a solvent of 5% DMSO+30% PEG400+65% (0.5% MC) and administered by gavage at 10 mg/kg. Food was provided 4 h after dosing. Blood samples (0.10 mL) were collected via the orbital sinus at 0, 15, 30 min, 1, 2, 4, 6, 8, and 24 h, with EDTA-K2 as anticoagulant. Blood samples were placed on ice after collection and centrifuged to separate plasma within 30 minutes (centrifugation conditions: 5000 rpm, 10 minutes, 4° C.). 50.0 μL of plasma sample (taken from −80° C. freezer, thawed naturally at room temperature and vortexed for 30 seconds) was added to a 1.5 mL centrifuge tube, followed by addition of 500 μL internal standard solution (methanol (TEDIA, HPLC grade), acetonitrile (TEDIA, HPLC grade), formic acid (FA, ACROS ORGANICS, HPLC grade), water was laboratory-made ultrapure water (100.0 ng·mL−1)). The mixture was vortexed for 60 seconds and centrifuged for 3 minutes (centrifugal force 12000 rpm). 100 μL of the supernatant was transferred to a 96-well injection plate containing an equal volume of water, mixed by shaking, and analyzed by LC-MS/MS with an injection volume of 10 μL. The data acquisition and control system software was Analyst 1.5.1 software (Applied Biosystem). The chromatographic sample peaks were integrated automatically. The ratio of sample peak area to internal standard peak area was used as an indicator for regression with sample concentration.
The pharmacokinetic parameters of representative compounds of the present invention were tested in male SD rats after oral gavage administration at 10 mg/kg according to the above conventional method to examine the pharmacokinetic characteristics of the compounds of the present invention in rats.

In the case of `C[C@]12CC[C@H](NC(=O)c3ccnnc3)CC1=CCC1C2CC[C@]2(C)C(n3cnc4ccccc43)=CCC12` (stereo partly drawn) [Compound 9], in data set [1], the “Maximum Inhibition (%)” value is given as 95.87% and the half-maximal inhibitory concentration (IC50) – broadly, the concentration that gives 50% inhibition – was 765 nM.
The like results for `CCc1cn(C2=CCC3C4CC=C5C[C@@H](NC(=O)c6ccnnc6)CC[C@]5(C)C4CC[C@]23C)cn1` (stereo partly drawn) [Compound 19] were, in that order, 97.68% and 427 nM.
The like results for `C[C@]12CC[C@H](NC(=O)c3ccncc3)CC1=CCC1C2CC[C@]2(C)C(c3cccnc3)=CCC12` (stereo partly drawn) [Compound 2, N-((3S,10R,13S)-10,13-dimethyl-17-(pyridin-3-yl)-2,3,4,7,8,9,10,11,12,13,14,15-dodecahydro-1H-cyclopenta[a]phenanthren-3-yl)isonicotinamide] were, in that order, 93.50% and 851 nM.
Take `C[C@]12CC[C@H](NC(=O)c3cccnc3)CC1=CCC1C2CC[C@]2(C)C(c3cccnc3)=CCC12` (stereo partly drawn) [Compound 3, N-((3S,10R,13S)-10,13-dimethyl-17-(pyridin-3-yl)-2,3,4,7,8,9,10,11,12,13,14,15-dodecahydro-1H-cyclopenta[a]phenanthren-3-yl)nicotinamide]: it took 2870 nM to reach half-maximal degradation in data set [2] (DC50).
As to `CC(C)c1cn(C2=CCC3C4CC=C5C[C@@H](NC(=O)c6ccncc6)CC[C@]5(C)C4CC[C@]23C)cn1` (stereo partly drawn) [Compound 20, N-((3S,10R,13S)-17-(4-isopropyl-1H-imidazol-1-yl)-10,13-dimethyl-2,3,4,7,8,9,10,11,12,13,14,15-dodecahydro-1H-cyclopenta[a]phenanthren-3-yl)isonicotinamide], in data set [1], the “Maximum Inhibition (%)” value is 94.04% and the IC50 is 734 nM.
For the compound `Cc1cn(C2=CCC3C4CC=C5C[C@@H](NC(=O)c6cccnc6)CC[C@]5(C)C4CC[C@]23C)cn1` (stereo partly drawn) [Compound 12, N-((3S,10R,13S)-10,13-dimethyl-17-(4-methyl-1H-imidazol-1-yl)-2,3,4,7,8,9,10,11,12,13,14,15-dodecahydro-1H-cyclopenta[a]phenanthren-3-yl)nicotinamide], in data set [1], the “Maximum Inhibition (%)” value is listed as 102.9% and the IC50 stood at 933 nM. Moreover, the DC50 (usually the concentration giving 50% degradation) in data set [2] amounted to 3580 nM.
For `Cc1cn(C2=CCC3C4CC=C5C[C@@H](NC(=O)c6ccncc6F)CC[C@]5(C)C4CC[C@]23C)cn1` (stereo partly drawn) [Compound 15, N-((3S,10R,13S)-10,13-dimethyl-17-(4-methyl-1H-imidazol-1-yl)-2,3,4,7,8,9,10,11,12,13,14,15-dodecahydro-1H-cyclopenta[a]phenanthren-3-yl)-3-fluoroisonicotinamide], in data set [1], the “Maximum Inhibition (%)” value was 102.6% and the IC50 amounted to 752 nM.
On to `CCc1cn(C2=CCC3C4CC=C5C[C@@H](NC(=O)c6ccncc6)CC[C@]5(C)C4CC[C@]23C)cn1` (stereo partly drawn) [Compound 18, N-((3S,10R,13S)-17-(4-ethyl-1H-imidazol-1-yl)-10,13-dimethyl-2,3,4,7,8,9,10,11,12,13,14,15-dodecahydro-1H-cyclopenta[a]phenanthren-3-yl)isonicotinamide], for which, in data set [1], the “Maximum Inhibition (%)” value worked out at 98.53% and the IC50 amounted to 356 nM. Moreover, the “Anti-proliferative activity, fold improvement compared to abiraterone” value in data set [1] (ratio to abiraterone IC50) came out at 7.9 fold. Further, in data set [2], the DC50 was found to be 3210 nM.
In the case of `C[C@]12CC[C@H](NC(=O)c3ccnnc3)CC1=CCC1C2CC[C@]2(C)C(n3cnc(C#N)c3)=CCC12` (stereo partly drawn) [Compound 25], in data set [1], the “Maximum Inhibition (%)” value stood at 89.52% and the IC50 is 471 nM.
Take `COc1cn(C2=CCC3C4CC=C5C[C@@H](NC(=O)c6ccnnc6)CC[C@]5(C)C4CC[C@]23C)cn1` (stereo partly drawn) [Compound 24]: in data set [1], the “Maximum Inhibition (%)” value is recorded as 98.02% and the IC50 came to 475 nM. Further, the “Anti-tumor activity and efficacy compared to enzalutamide” value in data set [1] (in words) is recorded as “comparable anti-tumor activity but significantly superior anti-tumor efficacy compared to enzalutamide”. Besides, the DC50 in data set [2] is 3880 nM.
For `C[C@]12CC[C@H](O)CC1=CC[C@@H]1[C@@H]2CC[C@]2(C)C(c3cccnc3)=CC[C@@H]12` [Abiraterone, abiraterone, reference compound], in data set [3], the Kel came to 0.298 h⁻¹ and the MRTPO is 4.60 h. Besides, in data set [3] (rat, plasma), the AUC(0-inf) (as a rule, total exposure, with the tail of the curve extrapolated) is 198 ng·h/mL; the AUC(0-t) (in general, the area under the concentration-time curve up to a stated or last time point) is 163 ng·h/mL; the half-life (in general, the time needed for the level to fall by half in the phase considered) is 2.37 h. Further, in data set [3] (rat, plasma, read-out: Cmax), the Cmax – broadly, the maximum level reached in the sampled fluid or tissue – was found to be 48.4 ng/mL. Besides, the tmax in data set [3] (rat, plasma, read-out: tmax) was found to be 1.83 h. Further, in data set [1], the “Maximum Inhibition (%)” value was determined as 84.06% and the IC50 came to 2800 nM.
Consider `Cc1cn(C2=CCC3C4CC=C5C[C@@H](NC(=O)c6ccc(C#N)cc6)CC[C@]5(C)C4CC[C@]23C)cn1` (stereo partly drawn) [Compound 36, N-((3S,10R,13S)-17-(4-methyl-1H-imidazol-1-yl)-10,13-dimethyl-2,3,4,7,8,9,10,11,12,13,14,15-dodecahydro-1H-cyclopenta[a]phenanthren-3-yl)-4-cyanobenzamide], for which, in data set [1], the “Maximum Inhibition (%)” value was 99.38% and the IC50 is 643 nM. In addition, it took 1370 nM to reach half-maximal degradation in data set [2] (DC50). In data set [2] (ratio to Galeterone DC50), the “AR degradation activity, improvement compared to Galeterone” value came to 7.6 times.
In the case of `C[C@]12CC[C@H](NC(=O)c3ccncc3)CC1=CCC1C2CC[C@]2(C)C(n3cnc4ccccc43)=CCC12` (stereo partly drawn) [Compound 8, N-((3S,10R,13S)-17-(1H-benzo[d]imidazol-1-yl)-10,13-dimethyl-2,3,4,7,8,9,10,11,12,13,14,15-dodecahydro-1H-cyclopenta[a]phenanthren-3-yl)isonicotinamide], in data set [1], the “Maximum Inhibition (%)” value was 104.5% and the IC50 turned out to be 763 nM. Further, in data set [2], half-maximal degradation (DC50) was put at 3760 nM.
Consider `C[C@]12CC[C@H](NC(=O)c3ccnnc3)CC1=CCC1C2CC[C@]2(C)C(n3cnc(C(F)(F)F)c3)=CCC12` (stereo partly drawn) [Compound 22], for which, in data set [1], the “Maximum Inhibition (%)” value turned out to be 104.1% and the IC50 came out at 819 nM.

The values are drawn from patent US20250073249A1, “STEROID COMPOUND, AND PREPARATION METHOD THEREFOR AND USE THEREOF” (SHANGHAI INSTITUTE OF MATERIA MEDICA, CHINESE ACADEMY OF …, priority 2022, published 2025).
